Experimental findings from ChEMBL document CHEMBL1153472 (Bioorg Med Chem Lett, 2009) are described below.

The target in data set [1] is Beta-3 adrenergic receptor (Homo sapiens, UniProt P13945). As to the kind of experiment: Agonist activity at human recombinant adrenergic beta3 receptor expressed in CHO cells assessed as stimulation of cAMP level after 1 hr by enzyme immunoassay. The format is functional, cell-based. In general terms: Cyclic AMP is a second messenger, typically raised through Gs and lowered through Gi signalling.

Data set [2] in a line: AUC (0 to 24 hrs) in po dosed dog. The format is ADME, organism-based, Canis lupus familiaris. More on the design: time < 24 hr, route oral. Particulars: plasma.
Data set [3] addresses Beta-1 adrenergic receptor (Homo sapiens, UniProt P08588). As to the kind of experiment: Agonist activity at human recombinant adrenergic beta-1 receptor expressed in CHO cells assessed as stimulation of cAMP level after 1 hr by enzyme immunoassay. In kind it is functional, cell-based.
Data set [4] can be described thus: Cmax in po dosed dog. Particulars: in vivo. In kind it is ADME, organism-based, Canis lupus familiaris. Also noted: route oral.
Data set [5] can be described thus: Protein binding in dog. In kind it is ADME, organism-based, Canis lupus familiaris. Particulars: in vivo, read-out: PB (converted).
Data set [6] concerns the target Beta-3 adrenergic receptor (Canis lupus familiaris, UniProt O02662). Briefly: Agonist activity at dog recombinant adrenergic beta3 receptor expressed in CHO cells assessed as stimulation of cAMP level after 1 hr by enzyme immunoassay. In kind it is functional, cell-based.
The test system of a further data set is Canis familiaris. As to the kind of experiment: Inhibition of carbachol-induced increase in intravesical pressure in intraduodenally dosed Beagle dog overactive bladder model administered after carbachol challenge followed by reinjection of carbachol 30 mins post drug dose measured for 180 mins. The format is functional. The settings on record: Canis lupus familiaris, intraduodenal.

A short description of data set [7]: Oral bioavailability in dog. In kind it is ADME, organism-based, Canis lupus familiaris. Particulars: in vivo.
A short description of data set [8]: Total clearance in iv dosed dog. Particulars: in vivo. In kind it is ADME, organism-based, Canis lupus familiaris.
Data set [9] in a line: Half life in iv dosed dog. Particulars: in vivo. The format is ADME, organism-based, Canis lupus familiaris.
For data set [10], the target named is Beta-2 adrenergic receptor (Homo sapiens, UniProt P07550). As to the kind of experiment: Agonist activity at human recombinant adrenergic beta2 receptor expressed in CHO cells assessed as stimulation of cAMP level after 1 hr by enzyme immunoassay. In kind it is functional, cell-based.

SMILES strings stand for the structures.

Chain of Beta-3 adrenergic receptor (Homo sapiens, UniProt P13945) (P13945 whole entry): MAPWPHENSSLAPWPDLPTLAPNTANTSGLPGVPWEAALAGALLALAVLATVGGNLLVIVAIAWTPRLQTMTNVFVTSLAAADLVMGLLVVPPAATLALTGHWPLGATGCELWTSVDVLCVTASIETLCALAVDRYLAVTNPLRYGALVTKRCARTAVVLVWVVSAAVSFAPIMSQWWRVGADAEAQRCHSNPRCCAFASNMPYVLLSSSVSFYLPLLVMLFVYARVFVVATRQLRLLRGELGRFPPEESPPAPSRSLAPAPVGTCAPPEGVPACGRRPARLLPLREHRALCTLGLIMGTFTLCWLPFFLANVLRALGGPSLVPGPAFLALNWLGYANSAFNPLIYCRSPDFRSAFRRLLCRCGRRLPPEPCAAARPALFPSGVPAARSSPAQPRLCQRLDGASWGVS
Chain of Beta-1 adrenergic receptor (P08588 whole entry): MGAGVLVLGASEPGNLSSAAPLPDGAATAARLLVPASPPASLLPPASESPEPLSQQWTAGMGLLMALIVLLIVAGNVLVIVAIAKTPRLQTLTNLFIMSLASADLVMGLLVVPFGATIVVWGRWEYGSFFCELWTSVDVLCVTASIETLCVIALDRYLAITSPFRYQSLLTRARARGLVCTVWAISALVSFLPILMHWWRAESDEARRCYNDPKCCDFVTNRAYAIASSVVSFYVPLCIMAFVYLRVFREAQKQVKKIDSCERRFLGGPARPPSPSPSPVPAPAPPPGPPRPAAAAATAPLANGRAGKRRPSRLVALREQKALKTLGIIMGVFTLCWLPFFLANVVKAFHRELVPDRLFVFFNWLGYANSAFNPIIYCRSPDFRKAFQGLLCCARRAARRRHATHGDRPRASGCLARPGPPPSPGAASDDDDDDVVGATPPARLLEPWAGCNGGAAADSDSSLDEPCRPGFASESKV
Chain of Beta-2 adrenergic receptor (P07550 whole entry): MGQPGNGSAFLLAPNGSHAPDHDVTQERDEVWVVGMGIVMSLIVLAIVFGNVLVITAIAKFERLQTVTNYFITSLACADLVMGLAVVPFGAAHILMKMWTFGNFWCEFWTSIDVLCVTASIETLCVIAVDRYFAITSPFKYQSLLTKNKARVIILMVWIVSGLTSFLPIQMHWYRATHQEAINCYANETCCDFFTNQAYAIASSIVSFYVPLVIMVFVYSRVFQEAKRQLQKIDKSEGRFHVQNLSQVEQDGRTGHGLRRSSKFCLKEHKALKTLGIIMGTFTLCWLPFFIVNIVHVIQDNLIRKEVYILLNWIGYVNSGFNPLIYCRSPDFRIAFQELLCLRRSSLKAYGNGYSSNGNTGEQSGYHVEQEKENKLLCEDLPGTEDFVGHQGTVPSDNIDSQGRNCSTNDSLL
Chain of Beta-3 adrenergic receptor (Canis lupus familiaris, UniProt O02662) (O02662 whole entry): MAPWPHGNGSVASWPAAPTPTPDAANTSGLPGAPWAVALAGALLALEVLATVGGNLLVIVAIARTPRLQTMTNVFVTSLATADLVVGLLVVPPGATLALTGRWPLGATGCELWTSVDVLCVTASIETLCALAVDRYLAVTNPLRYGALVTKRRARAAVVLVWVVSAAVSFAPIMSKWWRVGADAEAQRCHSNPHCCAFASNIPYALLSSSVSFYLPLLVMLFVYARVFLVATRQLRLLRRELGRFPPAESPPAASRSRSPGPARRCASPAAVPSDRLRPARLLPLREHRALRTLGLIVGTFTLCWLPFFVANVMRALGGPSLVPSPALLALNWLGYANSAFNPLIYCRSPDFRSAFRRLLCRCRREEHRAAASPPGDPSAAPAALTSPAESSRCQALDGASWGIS

For `CC(C)Oc1cc(-c2ccc(CCN[C@@H](C)[C@H](O)c3cccc(O)c3)cc2)ccc1C(=O)NS(C)(=O)=O`, the EC50 in data set [1] worked out at 0.044 nM; in data set [3], 130 nM. In addition, the AUC(0-t) at 24 h in [2] came out at 7.3 ng·h/mL. Besides, in [4], the highest level (Cmax) was 2.9 ng/mL.

Take `CC(C)Oc1cc(-c2ccc(CCN[C@@H](C)[C@H](O)c3ccc(O)cc3)cc2)ccc1C(=O)NS(C)(=O)=O`: the fraction unbound in data set [5] was 0.1. Moreover, the EC50 in data set [6] is 1 nM; in data set [1] it was 0.16 nM; in [3] it was 290 nM; in [10] it was more than 10000 nM. Besides, the ED50 in the data set on Canis familiaris was found to be 5.9 mg/kg. The bioavailability in [7] is 56%. This compound also showed an AUC(0-t) at 24 h in data set [2] of 117 ng·h/mL. The same compound showed a clearance in data set [8] of 7.9 mL/min/kg. In [9], this compound showed a half-life of 6.7 h. The concentration in [4] peaked (Cmax) at 23.2 ng/mL.

Consider `CC(C)Cc1cc(-c2ccc(C[C@@H](C)NC[C@H](O)c3ccccc3)cc2)ccc1C(=O)NS(C)(=O)=O`, for which the EC50 stood at 0.1 nM in data set [1] and 73 nM in data set [3].

Regarding `CS(=O)(=O)NC(=O)c1ccc(-c2ccc(CCNC[C@H](O)c3cccc(N)c3)cc2)cc1OC1CCCCC1`, the EC50 is 1.2 nM in [1] and more than 1000 nM in [3]. In data set [2], this compound came in with an AUC(0-t) at 24 h of 79.3 ng·h/mL. Also, the Cmax in [4] turned out to be 6.1 ng/mL.

Turning to `CS(=O)(=O)NC(=O)c1ccc(-c2ccc(CCNC[C@H](O)c3ccc(N)cc3)cc2)cc1OC1CCCCC1`, the EC50 in [3] was more than 1000 nM.

Consider `C[C@H](NCCc1ccc(-c2ccc(C(=O)NS(C)(=O)=O)c(OC3CCCCC3)c2)cc1)[C@H](O)c1ccc(O)cc1`, for which the EC50 in data set [1] was 0.35 nM; in [3], 110 nM; in data set [10] it was more than 10000 nM. In [7], the bioavailability worked out at 25%. Moreover, the area under the curve AUC(0-t) at 24 h in data set [2] came out at 39.7 ng·h/mL. In data set [8], this compound yielded a clearance of 11 mL/min/kg. In data set [9], this compound showed a half-life of 3.5 h. For the same compound, the Cmax in [4] stood at 5.3 ng/mL.

As for `CC(=O)Nc1ccc([C@@H](O)CNCCc2ccc(-c3ccc(C(=O)NS(C)(=O)=O)c(OC4CCCCC4)c3)cc2)cn1`, the EC50 was 0.23 nM in [1] and more than 1000 nM in [3]. Moreover, the bioavailability in [7] was 43%. In addition, the AUC(0-t) at 24 h in data set [2] is 86.5 ng·h/mL. The compound also returned a clearance in data set [8] of 8.9 mL/min/kg. Further, the half-life in data set [9] is 1.8 h. Also, the Cmax in data set [4] amounted to 16.2 ng/mL.

For the compound `CS(=O)(=O)NC(=O)c1ccc(-c2ccc(C[C@@H](CO)NC[C@H](O)c3ccccc3)cc2)cc1OC1CCCCC1`, the EC50 in data set [1] is 0.82 nM; in [3], more than 1000 nM. This compound also gave a bioavailability in data set [7] of 95%. The compound also returned an AUC(0-t) at 24 h in data set [2] of 654 ng·h/mL. The compound also had a clearance in data set [8] of 2.4 mL/min/kg. This compound gave a half-life in [9] of 5 h. Moreover, in data set [4], the Cmax turned out to be 59.1 ng/mL.

On to `CC(C)Oc1cc(-c2ccc(CCNC[C@H](O)c3ccc(N)cc3)cc2)ccc1C(=O)NS(C)(=O)=O`, for which the concentration giving a half-maximal response (EC50) in data set [3] was more than 1000 nM.

Turning to `CC(C)Oc1cc(-c2ccc(CCNC[C@H](O)c3ccc(O)c(NS(C)(=O)=O)c3)cc2)ccc1C(=O)NS(C)(=O)=O`, the EC50 in data set [1] was 0.26 nM; in [3], 150 nM. Moreover, in data set [2], the AUC(0-t) at 24 h turned out to be 4.4 ng·h/mL. Also, in data set [4], the peak level (Cmax) was 1.1 ng/mL.

Regarding `CC(C)Oc1cc(-c2ccc(CCNC[C@H](O)c3cccc(N)c3)cc2)ccc1C(=O)NS(C)(=O)=O`, the EC50 in data set [1] was 6 nM; in data set [3] it was more than 1000 nM. Moreover, in data set [7], the bioavailability turned out to be 46%. In data set [2], this compound gave an AUC(0-t) at 24 h of 143 ng·h/mL. In data set [8], this compound had a clearance of 5.1 mL/min/kg. In addition, in data set [9], the half-life was 4.9 h. In [4], the Cmax was found to be 17.2 ng/mL.

With `COc1ccc([C@@H](O)[C@H](C)NCCc2ccc(-c3ccc(C(=O)NS(C)(=O)=O)c(OC4CCCCC4)c3)cc2)cc1`, the EC50 in [1] was 28 nM; in [3], more than 1000 nM.

What is called EC50 is the midpoint of the concentration-response curve. For orientation: AUC(0-t) means exposure summed from dosing to a finite time, without extrapolation to infinity. Higher therefore signals more exposure. As usually defined, the Cmax is the highest concentration seen after dosing. A word on the ED50: it is the midpoint of the dose-response relation. The term bioavailability denotes the share of a dose that reaches the circulation, judged against a reference dose that is usually intravenous. One may read the clearance as the volume of plasma or blood freed of the substance per unit of time. As usually defined, the half-life is how long it takes for the measured level to halve. The low end stands for rapid decline, the high end for slow decline.
